From patent publication US20230365592A1 (Agios Pharmaceuticals, Inc., priority 2022, published 2023)

molecular target: T1, human PAH with the R408W mutation (Homo sapiens, UniProt P00439, R408W); test: Cell Based Phenylalanine Flux Assay; settings: A375 cells expressing R408W PAH; 24 hrs with compound, then 20 µM sepiapterin and 800 µM 13C9,15N-Phenylalanine for 4 hours; 13C-Tyrosine by LC-MS; average where tested multiple times; read-out: AC50;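 note: after compound treatment, cells received sepiapterin plus isotope-labelled Phenylalanine for 4 hours, then labelled Tyrosine in the medium was quantified, 10-point 2-fold dilution series run in duplicate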
T1 construct: expressed in transfected cells
T1 sequence (P00439 1-452 R408W): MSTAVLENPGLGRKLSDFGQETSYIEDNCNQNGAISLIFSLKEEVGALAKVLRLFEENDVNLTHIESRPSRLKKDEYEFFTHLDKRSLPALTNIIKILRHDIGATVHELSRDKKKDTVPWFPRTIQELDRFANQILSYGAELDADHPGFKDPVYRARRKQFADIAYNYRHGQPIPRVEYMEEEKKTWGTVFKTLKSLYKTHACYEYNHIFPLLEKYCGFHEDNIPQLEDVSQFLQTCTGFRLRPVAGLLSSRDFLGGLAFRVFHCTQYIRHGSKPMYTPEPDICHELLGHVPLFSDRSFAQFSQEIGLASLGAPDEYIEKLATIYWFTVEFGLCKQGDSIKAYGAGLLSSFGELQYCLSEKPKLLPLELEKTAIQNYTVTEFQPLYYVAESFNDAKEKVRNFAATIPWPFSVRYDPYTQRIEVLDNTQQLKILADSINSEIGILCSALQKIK

AC50 | SMILES
1 to 5 µM | Cn1cncc1-c1nnc(C(=O)N2CCc3[nH]cnc3C2c2cc3c(F)cccn3n2)o1 (stereo not shown)

same assay, conditions: A375 cells expressing human PAH R408W; 24 hrs compound incubation; 13C-Tyrosine by LC-MS; average where tested multiple times; read-out: AC50

AC50 | SMILES
> 5 µM | Cc1ncccc1-c1nnc(N2CCc3[nH]cnc3[C@@H]2c2cc3cccc(C)n3n2)o1 [Example 2333, (R)-2-(4-(7-methylpyrazolo[1,5-a]pyridin-2-yl)-1,4,6,7-tetrahydro-5H-imidazo[4,5-c]pyridin-5-yl)-5-(2-methylpyridin-3-yl)-1,3,4-oxadiazole]
> 5 µM | O=C(c1cnc(-c2cnccn2)o1)N1CCc2[nH]cnc2[C@@H]1c1cc2c(C(F)(F)F)cccn2n1 [Example 2245, (R)-(2-(pyrazin-2-yl)oxazol-5-yl)(4-(4-(trifluoromethyl)pyrazolo[1,5-a]pyridin-2-yl)-1,4,6,7-tetrahydro-5H-imidazo[4,5-c]pyridin-5-yl)methanone]

The next lines start with the compound.

SMILES | AC50
FC(F)(F)c1cccn2nc([C@@H]3c4nc[nH]c4CCN3c3ccccn3)cc12 [Example 1870, (S)-5-(pyridin-2-yl)-4-(4-(trifluoromethyl)pyrazolo[1,5-a]pyridin-2-yl)-4,5,6,7-tetrahydro-1H-imidazo[4,5-c]pyridine] | < 0.5 µM
CC(C)c1nnc(N2CCc3[nH]cnc3[C@H]2c2cc3c(Cl)cccn3n2)o1 [Example 2325, (S)-2-(4-(4-chloropyrazolo[1,5-a]pyridin-2-yl)-1,4,6,7-tetrahydro-5H-imidazo[4,5-c]pyridin-5-yl)-5-isopropyl-1,3,4-oxadiazole] | < 0.5 µM
O=C([C@H]1CC1(F)F)N1CCc2[nH]cnc2[C@H]1c1cc2c(F)cccn2n1 [Example 2223, ((R)-2,2-difluorocyclopropyl)((S)-4-(4-fluoropyrazolo[1,5-a]pyridin-2-yl)-1,4,6,7-tetrahydro-5H-imidazo[4,5-c]pyridin-5-yl)methanone] | 1 to 5 µM
COc1cccn2nc([C@H]3c4nc[nH]c4CCN3c3nnc(C(F)F)o3)cc12 [Example 2150, (R)-2-(difluoromethyl)-5-(4-(4-methoxypyrazolo[1,5-a]pyridin-2-yl)-1,4,6,7-tetrahydro-5H-imidazo[4,5-c]pyridin-5-yl)-1,3,4-oxadiazole] | > 5 µM

same assay, conditions: A375 cells expressing human R408W PAH; 24 hrs compound incubation; 13C-Tyrosine by LC-MS; average where tested multiple times; read-out: AC50

AC50 | SMILES
1 to 5 µM | Cc1cccc2cc([C@H]3c4nc[nH]c4CCN3C(=O)c3nnc(-c4cccnc4)o3)nn12 [Example 1309, (R)-(4-(7-methylpyrazolo[1,5-a]pyridin-2-yl)-6,7-dihydro-1H-imidazo[4,5-c]pyridin-5(4H)-yl)(5-(pyridin-3-yl)-1,3,4-oxadiazol-2-yl)methanone]
> 5 µM | O=C(c1nnc(-c2ccc(F)c(F)c2)o1)N1CCc2[nH]cnc2[C@@H]1c1cc2ccccn2n1 [Example 649, (R)-(5-(3,4-difluorophenyl)-1,3,4-oxadiazol-2-yl)(4-(pyrazolo[1,5-a]pyridin-2-yl)-6,7-dihydro-1H-imidazo[4,5-c]pyridin-5(4H)-yl)methanone]
0.5 to 1 µM | Cn1nccc1C(=O)N1CCc2[nH]cnc2[C@H]1c1cc2ccccn2n1 [Example 660, (S)-(1-methyl-1H-pyrazol-5-yl)(4-(pyrazolo[1,5-a]pyridin-2-yl)-6,7-dihydro-1H-imidazo(4,5-c]pyridin-5(4H)-yl)methanone]
1 to 5 µM | O=C(c1ocnc1C(F)(F)F)N1CCc2[nH]cnc2[C@@H]1c1cc2ccccn2n1 [Example 611, (R)-(4-(pyrazolo[1,5-a]pyridin-2-yl)-6,7-dihydro-1H-imidazo[4,5-c]pyridin-5(4H)-yl)(4-(trifluoromethyl)oxazol-5-yl)methanone]

Continued, compound first:

SMILES | AC50
FC(F)(F)c1cnc(N2CCc3[nH]cnc3[C@@H]2c2cc3c(C(F)(F)F)cccn3n2)nc1 [Example 1775, (R)-4-(4-(trifluoromethyl)pyrazolo[1,5-a]pyridin-2-yl)-5-(5-(trifluoromethyl)pyrimidin-2-yl)-4,5,6,7-tetrahydro-1H-imidazo[4,5-c]pyridine] | > 5 µM
CC(C)(F)c1nc(C(F)F)c(C(=O)N2CCc3[nH]cnc3[C@H]2c2cc3c(F)cccn3n2)o1 [Example 1226, (S)-(4-(difluoromethyl)-2-(2-fluoropropan-2-yl)oxazol-5-yl)(4-(4-fluoropyrazolo[1,5-a]pyridin-2-yl)-6,7-dihydro-1H-imidazo[4,5-c]pyridin-5(4H)-yl)methanone] | < 0.5 µM
